# Experimental data published in patent publication US9783536B2, “Nitrogen-containing heterocyclic compound or salt thereof” (FUJIFILM Corporation, priority 2013, dated 2017).
# Where a name gives a salt, the structure may show the parent alone. Read-outs that look alike come from different tables or passages of the source.
# How the values were obtained:
# [1] = target: T1, human PI3Kα protein (Homo sapiens, UniProt P42336); test: PI3Kα enzyme assay (ADP-Glo); format: biochemical; details: read-out: PI3Kα enzyme inhibitory activity
# T1 construct: purchased Carna Biosciences, Inc; host or cells: baculovirus expression system
# Method in brief: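 Biotinylated human PI3Kα (baculovirus-expressed, 4.5 nmol/L) pre-incubated 15 min with compound in Tris-HCl pH 7.5, MgCl2, BSA; reaction 60 min at 25° C with 50 μmol/L PIP2 and 100 μmol/L ATP final. ADP quantified by ADP-Glo luminescence; IC50 calculated.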
# [2] = target: T2, GST fusion human ERK2 protein (Homo sapiens, UniProt P28482); test: ERK2 enzyme assay (1); format: biochemical; details: read-out: ERK2 enzyme inhibitory activity (1)
# T2 construct: purchased Carna Biosciences, Inc; host or cells: E. coli expression system
# Description: In an ERK2 enzyme assay, GLUTATHIONE S-TRANSFERASE (GST) FUSION HUMAN ERK2 PROTEIN (manufactured by Carna Biosciences, Inc.), which was produced by using an E. coli expression system, was used.
# 12 μL of a reaction liquid (2.5 nmol/L ERK2, 100 mmol/L Hepes, 10 mmol/L MgCl2, 1.5 mmol/L DTT, 0.003% Brij35, pH 7.5) including ERK2 protein and a test compound having a predetermined concentration was allowed to stand at room temperature for 15 minutes. Then, 3 μL of a mixture liquid of FL-PEPTIDE8 (5-FAM-IPTSPITTTYFFFKKK-COOH) (manufactured by Caliper Life Sciences), which is substrate peptide, and ATP (manufactured by Sigma-Aldrich Co. LLC.) was added thereto such that the final concentrations thereof became 4.25 μmol/L and 43.1 μmol/L, respectively, and an enzyme reaction was performed by allowing to stand at 25° C. for 120 minutes.
# After the reaction, the enzyme reaction was stopped by adding 30 μL of a reaction stopper liquid (100 mmol/L HEPES, 11.2 mmol/L EDTA, 5.6% Brij35, pH 7.5) including a 0.5% COATING REAGENT 8 (trade name, manufactured by Perkin Elmer Inc.) thereto. Then, phosphorylated peptide and non-phosphorylated peptide were separated using LABCHIP EZ READER (trade name, manufactured by Caliper Life Sciences), and the porportion of the phosphorylated peptide was quantified.
# The inhibitory activities of the compounds were evaluated using IC50 (50% inhibitory concentration). The IC50 was calculated using XLFIT (trade name, manufactured by ID Business Solutions).
# [3] = 4.5 nmol/L PI3Kα, PIP2 50 μmol/L, ATP 100 μmol/L
# [4] = 2.5 nmol/L ERK2, ATP 43.1 μmol/L
# T1 sequence (P42336 whole entry): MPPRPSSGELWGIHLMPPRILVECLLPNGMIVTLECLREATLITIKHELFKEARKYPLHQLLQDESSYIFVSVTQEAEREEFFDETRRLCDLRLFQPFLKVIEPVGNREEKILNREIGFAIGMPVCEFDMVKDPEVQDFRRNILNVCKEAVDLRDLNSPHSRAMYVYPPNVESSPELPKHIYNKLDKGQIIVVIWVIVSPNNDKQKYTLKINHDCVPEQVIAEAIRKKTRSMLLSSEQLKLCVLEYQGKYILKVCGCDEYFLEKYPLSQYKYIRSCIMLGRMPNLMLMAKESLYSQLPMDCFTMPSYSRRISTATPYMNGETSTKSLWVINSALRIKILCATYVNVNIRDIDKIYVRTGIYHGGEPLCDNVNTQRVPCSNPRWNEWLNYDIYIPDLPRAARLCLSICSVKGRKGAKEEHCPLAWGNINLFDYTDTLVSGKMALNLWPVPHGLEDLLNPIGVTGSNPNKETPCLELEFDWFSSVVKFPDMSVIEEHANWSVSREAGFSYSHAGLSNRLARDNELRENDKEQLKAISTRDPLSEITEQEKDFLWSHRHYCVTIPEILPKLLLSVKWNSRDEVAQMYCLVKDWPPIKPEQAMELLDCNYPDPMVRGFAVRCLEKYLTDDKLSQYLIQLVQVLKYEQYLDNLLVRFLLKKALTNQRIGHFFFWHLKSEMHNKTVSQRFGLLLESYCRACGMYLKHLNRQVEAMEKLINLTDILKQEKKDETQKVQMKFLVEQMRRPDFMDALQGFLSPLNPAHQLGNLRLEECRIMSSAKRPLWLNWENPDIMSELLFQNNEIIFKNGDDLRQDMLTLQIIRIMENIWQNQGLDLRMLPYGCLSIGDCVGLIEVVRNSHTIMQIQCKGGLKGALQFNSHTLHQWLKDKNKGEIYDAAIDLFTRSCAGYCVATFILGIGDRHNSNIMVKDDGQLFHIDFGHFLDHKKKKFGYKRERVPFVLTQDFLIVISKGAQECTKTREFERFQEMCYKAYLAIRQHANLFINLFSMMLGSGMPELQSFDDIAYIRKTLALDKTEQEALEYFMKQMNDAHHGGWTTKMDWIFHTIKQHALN
# T1 sequence (P27986 whole entry partner): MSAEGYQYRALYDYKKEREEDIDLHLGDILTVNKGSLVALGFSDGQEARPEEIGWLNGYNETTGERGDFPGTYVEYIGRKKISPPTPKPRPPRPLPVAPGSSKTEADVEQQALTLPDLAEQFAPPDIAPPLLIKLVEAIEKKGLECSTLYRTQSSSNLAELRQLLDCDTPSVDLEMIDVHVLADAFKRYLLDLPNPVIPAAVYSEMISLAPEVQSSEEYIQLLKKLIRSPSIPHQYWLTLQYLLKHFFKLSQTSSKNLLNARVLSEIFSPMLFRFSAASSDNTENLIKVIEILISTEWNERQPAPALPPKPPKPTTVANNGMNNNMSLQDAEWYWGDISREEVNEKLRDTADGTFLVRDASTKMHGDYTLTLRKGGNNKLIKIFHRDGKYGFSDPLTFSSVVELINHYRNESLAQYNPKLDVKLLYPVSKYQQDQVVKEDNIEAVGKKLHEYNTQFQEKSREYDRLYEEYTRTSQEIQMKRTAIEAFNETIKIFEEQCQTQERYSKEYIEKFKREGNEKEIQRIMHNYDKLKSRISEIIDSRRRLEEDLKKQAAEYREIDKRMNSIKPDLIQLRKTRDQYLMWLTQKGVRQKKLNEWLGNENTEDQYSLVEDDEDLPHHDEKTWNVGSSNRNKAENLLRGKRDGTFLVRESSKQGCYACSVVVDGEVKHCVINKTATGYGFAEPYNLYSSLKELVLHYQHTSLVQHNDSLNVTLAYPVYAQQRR
# T2 sequence (P28482 whole entry, the tested form may be a part): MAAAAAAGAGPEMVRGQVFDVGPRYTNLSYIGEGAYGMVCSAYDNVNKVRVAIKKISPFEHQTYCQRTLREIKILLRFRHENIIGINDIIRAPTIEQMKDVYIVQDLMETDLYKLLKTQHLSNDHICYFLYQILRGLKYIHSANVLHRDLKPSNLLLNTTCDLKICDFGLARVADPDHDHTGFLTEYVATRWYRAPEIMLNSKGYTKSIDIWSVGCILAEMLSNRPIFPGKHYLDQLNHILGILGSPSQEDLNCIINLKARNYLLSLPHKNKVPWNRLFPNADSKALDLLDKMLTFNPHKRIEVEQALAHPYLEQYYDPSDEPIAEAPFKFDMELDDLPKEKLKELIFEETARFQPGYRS
Structure (SMILES),"IC50 [1, 3]","IC50 [2, 4]",IC50 [1],IC50 ([2]; ERK2 enzyme assay (1))
"COCCOc1cnc2ccc(Nc3nnc(C4CCCC4)s3)nc2c1 [Example 0041, 5-cyclopentyl-N-(7-(2-methoxyethoxy)-1,5-naphthyridin-2-yl)-1,3,4-thiadiazole-2-amine hydrochloride]",10 to 50 µM,< 1 µM,,
OCCCN1CCN(c2cnc3ccc(Nc4nnc(C5CCCC5)s4)nc3c2)CC1 [Example 0050],1 to 10 µM,< 1 µM,,
COC[C@H]1CCCN1c1cnc2ccc(Nc3nnc(C4CCCC4)s3)nc2c1 [Example 0062],1 to 10 µM,< 1 µM,,
"Cc1cc(Nc2ccc3ncc(-c4cnn(C)c4)cc3n2)n[nH]1 [Example 0277, N-(5-methyl-1H-pyrazol-3-yl)-7-(1-methyl-1H-pyrazol-4-yl)-1,5-naphthyridine-2-amine]",,,1 to 10 µM,1 to 10 µM
CC(C)Cc1cnc(Nc2ccc3ncc(-c4cnn(CCCN5CCCC5)c4)cc3n2)s1 [Example 0144],< 1 µM,< 1 µM,,
"CC(C)c1cnnc(Nc2ccc3ncc(-c4cnn(Cc5ccccn5)c4)cc3n2)c1 [Example 0375, N-(5-isopropylpyridazin-3-yl)-7-(1-(pyridin-2-ylmethyl)-1H-pyrazol-4-yl)-1,5-naphthyridine-2-amine]",,,< 1 µM,< 1 µM
Cc1cnnc(Nc2ccc3ncc(-c4cn[nH]c4)cc3n2)c1 [Example 0154],1 to 10 µM,< 1 µM,,
CC(C)c1cncc(Nc2cnc3ccc(Nc4nnc(C5CCCC5)s4)nc3c2)c1 [Example 0099],< 1 µM,< 1 µM,,
CC(C)c1nnc(Nc2ccc3nccc(Nc4ccnnc4)c3n2)s1 [Example 0008],< 1 µM,1 to 10 µM,,
"c1nc2ccc(Nc3nnc(CC4CC4)s3)nc2cc1-c1cnn(CCCN2CCCC2)c1 [Example 0256, 5-(Cyclopropylmethyl)-N-(7-(1-(3-(pyrrolidin-1-yl)propyl)-1H-pyrazol-4-yl)-1,5-naphthyridin-2-yl)-1,3,4-thiadiazole-2-amine]",,,< 1 µM,< 1 µM
"CC(C)c1cnnc(Nc2ccc3ncc(-c4cnn(CCCN5CCCC(C#N)C5)c4)cc3n2)c1 (centres unmarked) [Example 0379, 1-(3-(4-(6-((5-Isopropylpyridazin-3-yl)amino)-1,5-naphthyridin-3-yl)-1H-pyrazol-1-yl)propyl)piperidine-3-carbonitrile]",,,< 1 µM,< 1 µM
"COC1CCCN(CCCn2cc(-c3cnc4ccc(Nc5cc(C(C)C)cnn5)nc4c3)cn2)C1 (centres unmarked) [Example 0378, N-(5-isopropylpyridazin-3-yl)-7-(1-(3-(3-methoxypiperidin-1-yl)propyl)-1H-pyrazol-4-yl)-1,5-naphthyridine-2-amine]",,,< 1 µM,< 1 µM
CS(=O)(=O)N1CCC(Nc2cnc3ccc(Nc4nnc(C5CCCC5)s4)nc3c2)C1 (centres unmarked) [Example 0108],1 to 10 µM,< 1 µM,,
Cc1cc(-c2cnc3ccc(Nc4cc(C(C)C)cnn4)nc3c2)ccn1 [Example 0229],,,< 1 µM,< 1 µM
"CC(C)c1cnnc(Nc2ccc3ncc(-c4cn(C)nc4CO)cc3n2)c1 [Example 0394, (4-(6-((5-isopropylpyridazin-3-yl)amino)-1,5-naphthyridin-3-yl)-1-methyl-1H-pyrazol-3-yl)methanol]",,,< 1 µM,< 1 µM
CC(C)c1nnc(Nc2ccc3ncc(-c4cn(C)nc4-c4cnn(C)c4)cc3n2)s1 [Example 0477],,,< 1 µM,< 1 µM
CC(O)c1nnc(Nc2ccc3ncc(-c4cnn(CCCN5CCCC5)c4)cc3n2)s1 (centres unmarked) [Example 0259],,,< 1 µM,< 1 µM
"CC(C)c1nnc(Nc2ccc3ncc(-c4cnn(C)c4)nc3n2)s1 [Example 0010, 5-isopropyl-N-(3-(1-methyl-1H-pyrazol-4-yl)pyrido[2,3-b]pyrazine-6-yl)-1,3,4-thiadiazole-2-amineformate]",1 to 10 µM,< 1 µM,,
COCCCNc1cnc2ccc(Nc3nnc(C4CCCC4)s3)nc2c1 [Example 0307],,,< 1 µM,< 1 µM

Structure (SMILES),"IC50 [1, 3]","IC50 [2, 4]",IC50 [1],IC50 ([2]; ERK2 enzyme assay (1))
CC(C)c1nnc(Nc2ccc3nccc(-c4cnn(C)c4)c3n2)s1 [Example 0273],,,< 1 µM,< 1 µM
"OCCN1CCN(c2cnc3ccc(Nc4nnc(C5CCCC5)s4)nc3c2)CC1 [Example 0046, 2-(4-(6-((5-cyclopentyl-1,3,4-thiadiazol-2-yl)amino)-1,5-naphthyridin-3-yl)piperazin-1-yl)ethanol hydrochloride]",1 to 10 µM,< 1 µM,,
Cc1ncc(Nc2cnc3ccc(Nc4nnc(C5CCCC5)s4)nc3c2)cc1-n1nccn1 [Example 0074],< 1 µM,< 1 µM,,
"CN(C)CC(=O)N1CCN(c2cnc3ccc(Nc4nnc(C5CCCC5)s4)nc3c2)CC1 [Example 0059, 1-(4-(6-((5-cyclopentyl-1,3,4-thiadiazol-2-yl)amino)-1,5-naphthyridin-3-yl)piperazin-1-yl)-2-(dimethylamino)ethanone]",1 to 10 µM,< 1 µM,,
"c1nc2ccc(Nc3nnc(C4CCCCO4)s3)nc2cc1-c1cnn(CCCN2CCCC2)c1 (centres unmarked) [Example 0244, N-(7-(1-(3-(pyrrolidin-1-yl)propyl)-1H-pyrazol-4-yl)-1,5-naphthyridin-2-yl)-5-(tetrahydro-2H-pyran-2-yl)-1,3,4-thiadiazole-2-amine]",,,< 1 µM,< 1 µM
"CCc1nn(CCCN2CCCC2)cc1-c1cnc2ccc(Nc3cc(C(C)C)cnn3)nc2c1 [Example 0386, 7-(3-ethyl-1-(3-(pyrrolidin-1-yl)propyl)-1H-pyrazol-4-yl)-N-(5-isopropylpyridazin-3-yl)-1,5-naphthyridine-2-amine]",,,< 1 µM,< 1 µM
"CN1CC=C(c2cnc3ccc(Nc4nnc(C5CCCC5)s4)nc3c2)CC1 [Example 0333, 5-cyclopentyl-N-(7-(1-methyl-1,2,3,6-tetrahydropyridin-4-yl)-1,5-naphthyridin-2-yl)-1,3,4-thiadiazole-2-amine]",,,1 to 10 µM,< 1 µM
O=C(Cc1ccc(Nc2cnc3ccc(Nc4nnc(C5CCCC5)s4)nc3c2)cc1)N1CCOCC1 [Example 0105],< 1 µM,< 1 µM,,
"c1cc(Nc2cnc3ccc(Nc4nnc(C5CCCC5)s4)nc3c2)no1 [Example 0315, N^2-(5-cyclopentyl-1,3,4-thiadiazol-2-yl)-N^7-(isoxazol-3-yl)-1,5-naphthyridine-2,7-diamine]",,,1 to 10 µM,< 1 µM
CC(=O)N1CCCC(Nc2cnc3ccc(Nc4nnc(C5CCCC5)s4)nc3c2)C1 (centres unmarked) [Example 0076],< 1 µM,< 1 µM,,
"CC(C)c1nnc(Nc2ccc3ncc(-c4cn(C)nc4-c4ccccn4)cc3n2)s1 [Example 0136, 5-isopropyl-N-(7-(1-methyl-3-(pyridin-2-yl)-1H-pyrazol-4-yl)-1,5-naphthyridin-2-yl)-1,3,4-thiadiazole-2-amine]",< 1 µM,< 1 µM,,
"CC(C)c1nnc(Nc2ccc3nccc(-c4ccccc4)c3n2)s1 [Example 0264, 5-isopropyl-N-(8-phenyl-1,5-naphthyridin-2-yl)-1,3,4-thiadiazole-2-amine]",,,1 to 10 µM,< 1 µM
c1cnc(Nc2cnc3ccc(Nc4nnc(C5CCCC5)s4)nc3c2)cn1 [Example 0209],,,< 1 µM,< 1 µM
"Cc1nnc(Nc2ccc3ncc(N(C)c4cnn(C)c4)cc3n2)s1 [Example 0185, N^7-methyl-N^2-(5-methyl-1,3,4-thiadiazol-2-yl)-N^7-(1-methyl-1H-pyrazol-4-yl)-1,5-naphthyridine-2,7-diamine]",< 1 µM,< 1 µM,,
c1cc(Nc2cnc3ccc(Nc4nnc(C5CCCC5)s4)nc3c2)ccc1CCN1CCOCC1 [Example 0107],< 1 µM,< 1 µM,,
COc1cc(-c2ccnc3ccc(Nc4nnc(C(C)C)s4)nc23)ccn1 [Example 0280],,,10 to 50 µM,1 to 10 µM
"Cn1cc(-c2cnc3ccc(Nc4nnc(S(=O)(=O)NCc5ccccc5)s4)nc3c2)cn1 [Example 0192, N-benzyl-5-((7-(1-methyl-1H-pyrazol-4-yl)-1,5-naphthyridin-2-yl)amino)-1,3,4-thiadiazole-2-sulfonamide sodium salt]",< 1 µM,< 1 µM,,
"CCc1nn(C)cc1-c1cnc2ccc(Nc3nnc(C4CCCC4)s3)nc2c1 [Example 0110, 5-cyclopentyl-N-(7-(3-ethyl-1-methyl-1H-pyrazol-4-yl)-1,5-naphthyridin-2-yl)-1,3,4-thiadiazole-2-amine]",< 1 µM,< 1 µM,,
